Test results published in patent publication US7541463B2, “Sulfur-containing naphthalimide derivatives” (East China University of Science and Technology, priority 2003, dated 2009).

How the values were obtained:
[1] = tested on: human lung adenocarcinoma cell A-549; test: Growth inhibition of A-549 cells, SRB protein staining assay; assay type: cell-based; conditions: read-out: Growth inhibition effect to A-549 cell strain; for inhibition at 100 µM: A549, 10^−4 M; for inhibition at 10 µM: A549, 10^−5 M; for inhibition at 1 µM: A549, 10^−6 M; for inhibition at 0.1 µM: A549, 10^−7 M; for inhibition at 0.01 µM: A549, 10^−8 M
Protocol: (§1) The cell growth inhibition of mice leukemia cell P388 was evaluated by MTT (microculture tetrozolium) assay, while the cell growth inhibition of human lung adenocarcinoma cell A-549 was evaluated by SRB (Sulforhodamine B) protein staining assay.
The procedure of SRB assay was as follows: appropriate amount of cells in log phase were seeded in 96-well plates according to the growing rate (90 ul/well). After cultured for 24 h, cells were exposed to serial dilutions of drugs in triplicate (10 ul/well). In addition, control wells of normal saline in corresponding concentrations and zeroing wells without cell were set. The cells were incubated in 5% CO2 humidified incubator at 37° C. After 72 h, the medium was removed and cells were fixed with cold 10% trichloric acid (TCA) at 4° C. for 1 h. The plates were washed with distilled water 5 times, and stained in room temperature with 4 mg/ml SRB (Sigma, diluted with 1% glacial acetic acid, 100 ul/well) for 15 minutes after air drying. SRB was then washed with 1% acetic acid 5 times. Plates were dried, followed by adding 150 ul/well Tris solution. Absorbance was measured at […] using a multiwell spectrophotometer. The inhibition effect of the compounds in test (percentage of growth inhibition) was calculated for each well: % inhibition=(A540control cells−A540treated cells)/A540control cells×100%.
(§2) The cell lines used were mice leukemia cell P388, human leukemia cell MOLT-4, human lung adenocarcinoma cell A-549, human gastric adenocarcinoma SGC-7901, human hepatocellular carcinoma BEL-7402 and human embryonal fibroblast WI-38 (commerially available from ATCC).
(§3) The exposure time to compounds was 48 h-72 h.

[2] = tested on: mice leukemia cell P388; test: Growth inhibition of P388 cells, MTT assay; assay type: cell-based; conditions: Mus musculus, read-out: Growth inhibition effect to P388 cell strain; for inhibition at 100 µM: 10^−4 M; for inhibition at 10 µM: 10^−5 M; for inhibition at 1 µM: 10^−6 M; for inhibition at 0.1 µM: 10^−7 M; for inhibition at 0.01 µM: 10^−8 M
Protocol: as §1
The procedure of MTT assay was as follows: appropriate amount of cells in log phase were seeded in 96-well plates (6000 cells/well, 15000 cells/well, 90ul/well) according to the growing rate. After cultured for 24 h, cells were exposed to serial dilutions of drugs in triplicate (10 ul/well). In addition, wells without cell, and wells without cell but with serial dilutions of drugs in case of using a colored-drug were set for zeroing. Then, the cells were cultured in 5% CO2 humidified incubator at 37° C. for 48 h. After treatment of drugs for 48 h, 20ul MTT (Sigma) which was diluted by normal saline to the concentration of 5 mg/ml was added to each well, 50ul/well 10%SDS-5% isobutanol-0.01% mol/LHCl was added after 4 h. After cultured overnight, absorbance was measured at 570 nm using a multiwell spectrophotometer. The inhibition effect of the compounds in test (percentage of growth inhibition) was calculated for each well: % inhibition=(OD570control cells−OD570treated cells)/OD570control cells×100%.
as §2, §3

SMILES | melting point [°C] | inhibition at 100 µM [1] [%] | inhibition at 10 µM [1] [%] | inhibition at 1 µM [1] [%] | inhibition at 0.1 µM [1] [%] | inhibition at 0.01 µM [1] [%] | inhibition at 100 µM [2] [%] | inhibition at 10 µM [2] [%] | inhibition at 1 µM [2] [%] | inhibition at 0.1 µM [2] [%] | inhibition at 0.01 µM [2] [%]
O=c1c2ccc3sc4ccccc4c4ccc(c(=O)n1CCN1CCNCC1)c2c34 [compound 3, N-(2′-piperazinylethyl)benzo[k, l]thioxanthene-3,4-dicarboximide] | 286 to 287 | 78.6 | 92.4 | 69.8 | 4.7 | 0 | 100 | 100 | 22.2 | 0 | 0
CN(C)CCN1C(=O)c2cccc3c2c(cc2nc(-c4ccccc4)sc23)C1=O [compound 5, N-(N′,N′-dimethylaminoethyl)-4H, 6H-9-phenyl-benzo[de]thiazol[5,4-g]isoquinoline-4,6-diketone] | 220 to 221 | 94.8 | 91.5 | 73 | 69.7 | 17.8 | 96.6 | 87.7 | 48.2 | 21.1 | 8.1
Cc1ccc(-c2nc3cc4c5c(cccc5c3s2)C(=O)N(CCN(C)C)C4=O)cc1 [compound 6, N-(N′,N′-dimethylaminoethyl)-4H, 6H-9-p-methylphenyl-benzo[d, e]thiazol[5,4-g]isoquinoline4,6-diketone] | 202 to 203 | 95.8 | 92.3 | 52.7 | 31.5 | 7.1 | 96 | 74.7 | 47.7 | 29.3 | 13
CN(C)CCN1C(=O)c2cccc3c2c(cc2nc(-c4ccccc4O)sc23)C1=O [compound 8, N-(N′,N′-dimethylaminoethyl)-4H, 6H-9-o-hydroxyphenyl-benzo[de]thiazol[5,4-g]isoquinoline-4,6-diketone] | 240 to 241 | 95.2 | 59.6 | 18.6 | 1 | 0.2 | 94.8 | 45.9 | 24.9 | 10 | 8.8
CN(C)CCN1C(=O)c2cccc3c2c(cc2nc(-c4ccccc4Cl)sc23)C1=O [compound 10, N-(N′,N′-dimethylaminoethyl)-4H, 6H-9-o-chlorophenyl-benzo[de]thiazol[5,4-g]isoquinoline-4,6-diketone] | 235 to 237 | 91.4 | 93.4 | 94.5 | 35.7 | 12.5 | 96.1 | 89 | 64.6 | 40.5 | 7.3
CCCCN1C(=O)c2cccc3c2c(cc2nnsc23)C1=O [compound 12, 5-butyl-4H, 6H-benzo[de]-1,2,3,-thiadiazol[5,4-g]isoquinoline4,6-diketone] | 177 to 179 | 69.4 | 75.2 | 0 | 2.3 | 0 | 54.3 | 23.2 | 17.1 | 12.3 | 15.6
CN(C)CCCN1C(=O)c2cccc3c2c(cc2nnsc23)C1=O [compound 13, 5-(N′,N′-dimethylaminopropyl)-4H, 6H-benzo[de]-1,2,3,-thiadiazol[5,4-g]isoquinoline-4,6-diketone] | 101 to 102 | 95.9 | 94.4 | 90.6 | 0 | 0 | 99.5 | 89.2 | 19.8 | 11 | 14.5
O=C1c2cccc3c2c(cc2nnsc23)C(=O)N1CCN1CCNCC1 [compound 14, 5-(2′-piperazinylethyl)-4H, 6H-benzo[de]-1,2,3,-thiadiazol[5,4-g]isoquinoline-4,6-diketone] | 145 to 146 | 95.9 | 96.1 | 87.3 | 60.2 | 4.4 | 98.8 | 90.8 | 16.8 | 13.7 | 18.4
CCCCN1C(=O)c2cccc3c2c(cc2c4ccccc4sc32)C1=O [compound 15, N-butylbenzo[b] thieno[2,1-c]naphthalimide] | 170 to 172 | 94 | 45.6 | 0 | 0 | 0 | 51.8 | 26 | 3.2 | 3.2 | 5.8
O=C1c2cccc3c2c(cc2c4ccccc4sc32)C(=O)N1CCN1CCNCC1 [compound 17, N-(2′-piperazinylethyl)benzo[b]thieno[2,1-c] naphthalimide] | 226 to 228 | 91.1 | 95.4 | 46.8 | 0 | 1.7 | 100 | 100 | 23.9 | 4.5 | 2
CN(C)CCCN1C(=O)c2cccc3c2c(cc2c4ccccc4sc32)C1=O [compound 18, N-(N′,N′-dimethylaminopropyl)benzo[b]thieno[2,1-c] naphthalimide] | 168 to 170 | 95.3 | 96.9 | 81.1 | 47.2 | 1.7 | 100 | 100 | 29.8 | 17.1 | 5.5
C=C(C)C(CN1C(=O)c2cccc3c2c(cc2c4ccccc4sc32)C1=O)OO (stereo not drawn) [compound 19] | 174 to 175 |  |  |  |  |  |  |  |  |  | 
C=C(C)C(O)CN1C(=O)c2cccc3c2c(cc2c4ccccc4sc32)C1=O (stereo not drawn) [compound 20] | 95 to 97 |  |  |  |  |  |  |  |  |  | 
CC(C)=CCN1C(=O)c2cccc3c2c(cc2c4ccccc4sc32)C1=O [compound 21] | 207 to 208 |  |  |  |  |  |  |  |  |  | 
C=C(C)C(CCn1c(=O)c2ccc3sc4ccccc4c4ccc(c1=O)c2c34)OO (stereo not drawn) [compound 22] | 210 to 211 |  |  |  |  |  |  |  |  |  | 
CC(C)=CCCn1c(=O)c2ccc3sc4ccccc4c4ccc(c1=O)c2c34 [compound 23] | 202 to 203 |  |  |  |  |  |  |  |  |  | 
O=C(ON1C(=O)c2cccc3cccc(c23)C1=S)c1ccccc1 [compound 24] | 189 to 190 |  |  |  |  |  |  |  |  |  | 
O=C(ON1C(=O)c2cccc3cccc(c23)C1=S)c1ccc(Cl)cc1 [compound 26] | 182 to 183 |  |  |  |  |  |  |  |  |  | 
O=C(ON1C(=O)c2cccc3cccc(c23)C1=S)c1ccc(Cl)cc1F [compound 30] | 208 to 210 |  |  |  |  |  |  |  |  |  | 
Cc1cc(C)cc(C(=O)ON2C(=O)c3cccc4cccc(c34)C2=S)c1 [compound 31] | 216 to 218 |  |  |  |  |  |  |  |  |  | 
COc1ccc(C(=O)ON2C(=O)c3cccc4cccc(c34)C2=S)cc1OC [compound 32] | 221 to 223 |  |  |  |  |  |  |  |  |  | 
O=C(ON1C(=O)c2cccc3cccc(c23)C1=S)c1ccco1 [compound 34] | 209 to 211 |  |  |  |  |  |  |  |  |  | 
